Assay results reported in patent US7615353B1, “Tivozanib response prediction” (AVEO Pharmaceuticals, Inc., priority 2009, dated 2009).

Tests used:
[1] = system: murine breast tumors (BH archive); assay: tumor response to tivozanib, subcutaneously transplanted murine Her2-driven breast tumors (BH archive) in NCr nude mice; format: in vivo, mouse
From the text: A population of more than 100 murine breast tumors (BH archive) was used to identify tumors that are sensitive to tivozanib (responders) and tumors that are resistant to tivozanib (non-responders). The BH archive was established by in vivo propagation and cryopreservation of primary tumor material from more than 100 spontaneous murine breast tumors derived from engineered chimeric mice that develop Her2-dependent, inducible spontaneous breast tumors. The mice were produced essentially as follows.
Tumor cells were isolated by physical disruption of the tumors using cell strainers. Typically 1×10^5 cells were mixed with matrigel (50:50 volume) and injected subcutaneously into female NCr nu/nu mice on upper dorsal region between the shoulder blades. When these tumors grew to approximately 500 mm^3, which typically required 2 to 4 weeks, they were collected for further propagation, drug response testing, and analysis. Analysis included microarray profiling, general histopathology, and IHC (CD31 for tumor vasculature, Ki67 for tumor cell proliferation).
Evaluation of tumor response to tivozanib was performed essentially as follows. Subcutaneously transplanted tumors were established by injecting physically disrupted tumor cells (mixed with Matrigel) into 7 week-old female NCr nude mice. When the tumors reached approximately 200-400 mm^3, 30 tumor-bearing mice were randomized into three groups. Group 1 received vehicle. Group 2 received tivozanib at 5 mg/kg daily by oral gavage. Group 3 received tivozanib at 20 mg/kg daily by oral gavage. Tumors were measured twice per week by a caliper, and tumor volume was calculated. At the end of the treatment, tumors were collected for histopathological analysis and IHC analysis.
Based on tumor growth inhibition and typical histopathological and IHC (CD31) characteristics for angiogenesis inhibition, responders and non-responders were identified. […]

[2] = 272-patient Phase 2 clinical trial; Bhargava et al., 2009; cited from earlier work
[3] = system: preclinical models; details: Nakamura et al., 2006; cited from earlier work
[4] = molecular target: VEGF receptor 3 (Homo sapiens, UniProt P35916); details: Nakamura et al., 2006; cited from earlier work
Chain of VEGF receptor 3 (P35916 25-1363): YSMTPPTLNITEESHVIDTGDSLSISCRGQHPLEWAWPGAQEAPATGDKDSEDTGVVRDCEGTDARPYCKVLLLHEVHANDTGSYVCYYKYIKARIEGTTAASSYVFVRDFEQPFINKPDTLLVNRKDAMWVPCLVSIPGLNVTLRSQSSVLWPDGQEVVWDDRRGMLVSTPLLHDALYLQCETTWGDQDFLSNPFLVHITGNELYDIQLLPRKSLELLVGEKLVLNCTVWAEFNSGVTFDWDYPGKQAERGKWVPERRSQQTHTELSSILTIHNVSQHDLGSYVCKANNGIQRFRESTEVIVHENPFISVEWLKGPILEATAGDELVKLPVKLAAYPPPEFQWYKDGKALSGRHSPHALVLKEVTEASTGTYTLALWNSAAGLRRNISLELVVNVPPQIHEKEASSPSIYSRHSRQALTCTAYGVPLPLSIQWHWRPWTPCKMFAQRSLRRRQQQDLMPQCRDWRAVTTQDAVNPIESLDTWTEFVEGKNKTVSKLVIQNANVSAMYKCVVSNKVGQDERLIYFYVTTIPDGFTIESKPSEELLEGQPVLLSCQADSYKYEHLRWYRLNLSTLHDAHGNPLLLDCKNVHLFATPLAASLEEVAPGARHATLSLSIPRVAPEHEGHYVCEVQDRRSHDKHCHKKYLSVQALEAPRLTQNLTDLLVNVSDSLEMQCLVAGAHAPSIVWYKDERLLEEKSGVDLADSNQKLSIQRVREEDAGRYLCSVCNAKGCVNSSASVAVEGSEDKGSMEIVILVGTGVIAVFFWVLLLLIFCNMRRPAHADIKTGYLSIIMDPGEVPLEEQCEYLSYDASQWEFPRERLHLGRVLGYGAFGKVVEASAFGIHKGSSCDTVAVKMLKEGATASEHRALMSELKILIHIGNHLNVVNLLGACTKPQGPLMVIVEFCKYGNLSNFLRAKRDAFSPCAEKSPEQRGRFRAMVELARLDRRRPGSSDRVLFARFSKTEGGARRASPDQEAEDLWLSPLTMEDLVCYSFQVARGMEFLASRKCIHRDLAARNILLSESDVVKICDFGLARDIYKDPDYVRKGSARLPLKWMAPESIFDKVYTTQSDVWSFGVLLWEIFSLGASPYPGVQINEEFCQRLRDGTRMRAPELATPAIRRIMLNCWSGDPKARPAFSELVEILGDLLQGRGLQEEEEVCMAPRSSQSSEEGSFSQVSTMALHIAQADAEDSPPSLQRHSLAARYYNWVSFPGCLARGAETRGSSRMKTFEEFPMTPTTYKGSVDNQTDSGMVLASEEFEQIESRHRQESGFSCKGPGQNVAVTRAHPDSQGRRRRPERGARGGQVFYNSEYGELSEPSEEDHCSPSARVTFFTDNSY

COc1cc2nccc(Oc3ccc(NC(=O)Nc4cc(C)on4)c(Cl)c3)c2cc1OC [Tivozanib, N-{2-chloro-4-[(6,7-dimethoxy-4-quinolyl)oxy]-phenyl}-N′-(5-methyl-3-isoxazolyl)urea]
variation in response among tumors ([1]; 5 or 20 mg/kg daily by oral gavage, tumor growth inhibition, histopathology, IHC (CD31)): significant tumor-to-tumor variation in response | tumor progression by caliper measurement ([1]; responder tumors, 5 mg/kg daily by oral gavage): no tumor progression | tumor killing (by histology) ([1]; responder tumors, 5 mg/kg daily by oral gavage, except the peripheries): close to complete tumor killing | interim results [2]: positive interim results | antitumor activity [3]: exhibits antitumor activity | inhibitory activity [4]: picomolar
